Source: US10793576B2, “Compound used as Bruton's tyrosine kinase inhibitor and preparation method and application thereof” (Chengdu Brilliant Pharmaceutical Co., LTD., priority 2017, dated 2020)

Tests used:
[1] = tested on: TMD8 cells; assay: Cell proliferation inhibition in vitro, TMD8 cells by CCK-8 method; type: cell-based; details: Homo sapiens, 72 hours, read-out: Inhibitions of cell activities IC50 (nM) TMD8
Protocol: (§1) Test Example 2: Determination of the Inhibition of Cell Proliferation Inhibitory Activity in
(§2) vitro of compounds using different cell lines
(§3) 2: Preparation of the Compounds:
(§4) The compounds to be tested were diluted with DMSO to prepare a mother liquor at a final concentration of 10 mM for later use.
(§5) 3.1. Test of TMD8 and OCI-ly10 Cells by CCK-8 Method
(§6) Logarithmic growth phase cells were collected, counted and resuspended in complete medium. The cell concentration was adjusted to a suitable concentration (determined according to the cell density optimization test results), and seeded to 96-well plate and 100 μl of the cell suspension was added to each well. The cells were incubated in an incubator at 37° C., 100% relative humidity and 5% C02 for 24 hours.
(§7) The compounds to be tested were diluted with the medium to the set corresponding action concentration, and the cells were added at 25 µl/well. The cells were incubated in an incubator at 37° C., 100% relative humidity and 5% C02 for 72 hours.
(§8) The medium was aspirated and discarded, and a complete medium containing 10% of the test reagent was added and the obtained system was incubated in a 37° C. incubator for 1 hour-4 hours.
(§9) As: OA of the sample (cell+test reagent+test compound)
(§10) Ac: OA of the negative control (cell+test reagent+DMSO)
(§11) Ab: OA of the positive control (medium+test reagent+DMSO)
(§12) IC50 curve fitting was performed using the software Graphpad Prism 5 or XLfit and IC50 values were calculated.

[2] = target: BTK kinase (Homo sapiens (Human), UniProt Q06187); assay: In vitro assay for the inhibition of BTK kinase activity (Mobility-Shift Assay); type: biochemical
Chain of BTK kinase (Q06187 whole entry): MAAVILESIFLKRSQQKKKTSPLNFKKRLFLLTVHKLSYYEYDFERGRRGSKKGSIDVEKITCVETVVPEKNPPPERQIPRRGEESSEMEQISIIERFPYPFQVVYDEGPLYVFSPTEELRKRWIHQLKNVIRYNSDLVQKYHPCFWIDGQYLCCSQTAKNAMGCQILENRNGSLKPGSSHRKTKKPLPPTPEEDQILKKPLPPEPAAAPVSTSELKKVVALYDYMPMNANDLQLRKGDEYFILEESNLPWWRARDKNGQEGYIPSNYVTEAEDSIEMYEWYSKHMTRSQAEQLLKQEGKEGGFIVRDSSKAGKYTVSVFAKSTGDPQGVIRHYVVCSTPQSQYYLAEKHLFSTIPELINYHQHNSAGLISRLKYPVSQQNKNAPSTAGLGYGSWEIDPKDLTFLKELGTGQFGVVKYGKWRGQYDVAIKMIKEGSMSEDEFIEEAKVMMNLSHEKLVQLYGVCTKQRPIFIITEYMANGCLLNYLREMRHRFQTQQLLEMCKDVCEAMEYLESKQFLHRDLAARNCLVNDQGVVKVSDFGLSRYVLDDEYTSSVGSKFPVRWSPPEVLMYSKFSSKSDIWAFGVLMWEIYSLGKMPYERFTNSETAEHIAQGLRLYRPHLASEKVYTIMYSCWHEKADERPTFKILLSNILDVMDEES
From the text: Mobility-Shift Assay, which is microfluidic chip technology, applies the basic concept of capillary electrophoresis to microfluidic environments. The substrate used for the experiment is a polypeptide with a fluorescent label. Under the action of enzyme in the reaction system, the substrate is transformed into a product, and the charge the substrate carries also changes accordingly. The use of the charge difference between the substrate and the product involved in Mobility-Shift Assay achieves the separating of the two, and they are tested respectively. The test results are expressed by conversion rates.
(3) 100% DMSO was added to the positive control well and the negative control well, respectively;

[3] = tested on: OCI-LY10 cells; assay: Cell proliferation inhibition in vitro, OCI-ly10 cells by CCK-8 method; type: cell-based; details: Homo sapiens, 72 hours, read-out: Inhibitions of cell activities IC50 (nM) OCI-LY10
Protocol: as §1, §2, §3, §4, §5, §6, §7, §8, §9, §10, §11, §12

[4] = tested on: DOHH2 cells; assay: Cell proliferation inhibition in vitro, DOHH2 cells by CTG assay; type: cell-based; details: Homo sapiens, DOHH-2, 72 hours, read-out: Inhibitions of cell activities IC50 (nM) DOHH2
Protocol: as §1, §2, §3, §4
3.2 Test of DOHH2 Cells by CTG Assay
as §6
The compounds to be tested were diluted with the medium to the set corresponding action concentration, and the cells were added at 10 µl/well. The cells were incubated in an incubator set at 37° C., 100% relative humidity and 5% C02 for 72 hours.
The medium was aspirated and discarded, and 30 μl of test reagent was added. The plate was gentle shaken away from the light to lyse the cells.
as §9, §10, §11, §12

Compound | IC50 [1] [nM] | IC50 [2] [µM] | IC50 [3] [nM] | IC50 [4] [nM]
C=CC(=O)N1CC2CCCC2C1c1nc(-c2ccc(C(C)(O)c3ccccc3)cc2)c2c(N)nccn12 (stereo not drawn) [Example 77] | 2.5 | 0.0085 | 0.26 | 212
C=CC(=O)N1CC2CCCC2C1c1nc(-c2ccc(C(=O)Nc3cc(Cl)ccn3)cc2)c2c(N)nccn12 (stereo not drawn) [Example 68] | 3.2 | 0.0053 | 4.4 | 172
C=CC(=O)N1C2C[C@@H](C1c1nc(-c3ccc(C(=O)Nc4cc(C(F)(F)F)ccn4)cc3)c3c(N)nccn13)N(C(C)C)C2 (stereo partly drawn) [Example 55] | 0.48 | 0.0023 | 1.87 | 97
CC#CC(=O)N1C2CN[C@@H](C2)C1c1nc(-c2ccc(Oc3ccccc3)cc2)c2c(N)nccn12 (stereo partly drawn) [Example 107] | 12.3 | 0.041 | 0.81 | 986
CC#CC(=O)N1C2C[C@@H](C1c1nc(-c3ccc(C(C)(O)c4ccccc4)cc3)c3c(N)nccn13)N(C(C)C)C2 (stereo partly drawn) [Example 91] | 1.4 | 0.021 | 0.41 | > 1000
CC#CC(=O)N1C2CC[C@@H](C2)C1c1nc(-c2ccc(C(C)(O)c3ccccc3)cc2)c2c(N)nccn12 (stereo partly drawn) [Example 80] | 4.3 | 0.024 | 0.67 | 618
CN(C/C=C/C(=O)N1CC2CCCC2[C@H]1c1nc(-c2ccc(C(=O)Nc3ccccn3)cc2)c2c(N)nccn12)C1CC1 (stereo partly drawn) [Example 115, 4-(8-amino-3-((1S)-2-((E)-4-(cyclopropyl(methyl)amino)-2-butenoyl)octahydrocyclopenta[c]pyrrol-1-yl)imidazo[1,5-a]pyrazin-1-yl)-N-(pyridin-2-yl) benzamide] | 17.6 | 0.026 | 12.1 | > 1000
CC#CC(=O)N1[C@H]2CC[C@@H]1[C@@H](c1nc(-c3ccc(C(=O)Nc4ccccn4)cc3)c3c(N)nccn13)C2 [Example 119, 4-(8-amino-3-((1R,2S,4S)-7-(but-2-ynoyl)-7-azabicyclo[2.2.1]heptan-2-yl)imidazo[1,5-a]pyrazin-1-yl)-N-(pyridin-2-yl)benzamide] | 2.4 | 0.043 | 0.42 | > 1000
CC#CC(=O)N1C2CCC1(c1nc(-c3ccc(C(=O)Nc4ccccn4)cc3)c3c(N)nccn13)COC2 (stereo not drawn) [Example 12] | 4.3 | 0.014 | 7.4 | 129
CC#CC(=O)N1C2CN[C@@H](C2)C1c1nc(-c2ccc(C(C)(O)c3ccccc3)cc2)c2c(N)nccn12 (stereo partly drawn) [Example 87] |  | 0.042 |  | 786
C=CC(=O)N1C2CC[C@@H](C2)C1c1nc(-c2ccc(C(=O)Nc3cc(Cl)ccn3)cc2)c2c(N)nccn12 (stereo partly drawn) [Example 70] | 6.8 | 0.0024 | 3.2 | 677
CC#CC(=O)N1CC2CC1(c1nc(-c3ccc(C(=O)Nc4ccccn4)cc3)c3c(N)nccn13)CO2 (stereo not drawn) [Example 10] | 6.3 | 0.072 | 2.1 | > 1000
CC#CC(=O)N1C2C[C@@H](C1c1nc(-c3ccc(C(=O)Nc4ccccn4)cc3)c3c(N)nccn13)N(C(C)C)C2 (stereo partly drawn) [Example 17] |  | 0.048 |  | > 1000
C=CC(=O)N1CC2CCCC2C1c1nc(-c2ccc(C(=O)Nc3cc(C(F)(F)F)ccn3)cc2)c2c(N)nccn12 (stereo not drawn) [Example 42] | 0.26 | 0.0053 | 0.33 | 104
CC#CC(=O)N1CC2CCCC2C1c1nc(-c2ccc(C(=O)Nc3ccccn3)cc2)c2c(N)nccn12 (stereo not drawn) [Example 4] | 2.1 | 0.0045 | 3.5 | 673
CC#CC(=O)N1C2CN[C@@H](C2)C1c1nc(-c2ccc(C(=O)Nc3cc(C)ccn3)cc2)c2c(N)nccn12 (stereo partly drawn) [Example 67] |  | 0.069 |  | > 1000
C=CC(=O)N1C2C[C@@H](C1c1nc(-c3ccc(Oc4ccccc4)cc3)c3c(N)nccn13)N(C)C2 (stereo partly drawn) [Example 108] | 14.3 | 0.072 | 2.7 | > 1000
CC#CC(=O)N1C2CC[C@@H](C2)C1c1nc(-c2ccc(Oc3ccccc3)cc2)c2c(N)nccn12 (stereo partly drawn) [Example 99] | 5.4 | 0.039 | 2.7 | > 1000
C=CC(=O)N1CC2CC1(c1nc(-c3ccc(C(=O)Nc4ccccn4)cc3)c3c(N)nccn13)CO2 (stereo not drawn) [Example 9] | 0.2 | 0.0028 | 0.13 | 74.3

Compound | IC50 [1] [nM] | IC50 [2] [µM] | IC50 [3] [nM] | IC50 [4] [nM]
C=CC(=O)N1C2CC[C@@H](C2)C1c1nc(-c2ccc(Oc3ccccc3)cc2)c2c(N)nccn12 (stereo partly drawn) [Example 98] | 6.8 | 0.024 | 0.33 | > 1000
C=CC(=O)N1C2CN[C@@H](C2)C1c1nc(-c2ccc(C(=O)Nc3cc(C)ccn3)cc2)c2c(N)nccn12 (stereo partly drawn) [Example 66] |  | 0.034 |  | > 1000
CC#CC(=O)N1C[C@H]2[C@@H]([C@H]1c1nc(-c3ccc(C(=O)Nc4ccccn4)cc3)c3c(N)nccn13)C2(C)C [Example 6] | 5.4 | 0.0091 | 0.21 | > 1000
C=CC(=O)N1CC2(CC2)C[C@H]1c1nc(-c2ccc(C(=O)Nc3ccccn3)cc2)c2c(N)nccn12 [Example 2, (S)-4-(3-(5-acryloyl-5-azaspiro[2.4]heptan-6-yl)-8-aminoimidazo[1,5-a]pyrazin-1-yl)-N-(pyridin-2-yl)benzamide] |  | 0.024 |  | 917
C=CC(=O)N1C2CN[C@@H](C2)C1c1nc(-c2ccc(C(C)(O)c3ccccc3)cc2)c2c(N)nccn12 (stereo partly drawn) [Example 86] |  | 0.029 |  | 917
CC#CC(=O)N1CC2(CC2)C[C@H]1c1nc(-c2ccc(C(=O)Nc3ccccn3)cc2)c2c(N)nccn12 [Example 1, (S)-4-(8-amino-3-(5-(but-2-ynoyl)-5-azaspiro[2.4]heptan-6-yl)imidazo[1,5-a]pyrazin-1-yl)-N-(pyridin-2-yl)benzamide] |  | 0.083 |  | > 1000
C=CC(=O)N1C[C@H]2[C@@H]([C@H]1c1nc(-c3ccc(C(=O)Nc4cc(C)ccn4)cc3)c3c(N)nccn13)C2(C)C [Example 60] |  | 0.051 |  | 
C=CC(=O)N1CCC2CC21c1nc(-c2ccc(C(=O)Nc3ccccn3)cc2)c2c(N)nccn12 (stereo not drawn) [Example 32] |  | 0.057 |  | > 1000
CC#CC(=O)N1C(c2nc(-c3ccc(C(=O)Nc4cc(C(F)(F)F)ccn4)cc3)c3c(N)nccn23)CC2CC21 (stereo not drawn) [Example 51] |  | 0.054 |  | 
C=CC(=O)N1C2C[C@@H](C1c1nc(-c3ccc(C(C)(O)c4ccccc4)cc3)c3c(N)nccn13)N(C(C)=O)C2 (stereo partly drawn) [Example 90] |  | 0.079 |  | 
CC#CC(=O)N1C(c2nc(-c3ccc(C(=O)Nc4cc(C)ccn4)cc3)c3c(N)nccn23)CC2CC21 (stereo not drawn) [Example 65] |  | 0.058 |  | 
CC#CC(=O)N1CCC2CC21c1nc(-c2ccc(Oc3ccccc3)cc2)c2c(N)nccn12 (stereo not drawn) [Example 103] |  | 0.271 |  | 
C=CC(=O)N1CC2C[C@H]1C(c1nc(-c3ccc(C(=O)Nc4ccccn4)cc3)c3c(N)nccn13)N2 (stereo partly drawn) [Example 19] |  | 0.4 |  | 
CC#CC(=O)N1C(c2nc(-c3ccc(C(=O)Nc4ccccn4)cc3)c3c(N)nccn23)CC2CC21 (stereo not drawn) [Example 25] |  | 0.342 |  | 
C=CC(=O)N1CCC2CC21c1nc(-c2ccc(Oc3ccccc3)cc2)c2c(N)nccn12 (stereo not drawn) [Example 102] |  | 0.175 |  | 
CC#CC(=O)N1CC2C[C@H]1C(c1nc(-c3ccc(C(=O)Nc4ccccn4)cc3)c3c(N)nccn13)N2 (stereo partly drawn) [Example 21] |  | 0.672 |  | 
C=CC(=O)N1CCC2CC21c1nc(-c2ccc(C(=O)Nc3cc(C(F)(F)F)ccn3)cc2)c2c(N)nccn12 (stereo not drawn) [Example 58] |  | 0.078 |  | 
CC#CC(=O)N1CC2(CC2)C[C@H]1c1nc(-c2ccc(C(=O)Nc3cc(C(F)(F)F)ccn3)cc2)c2c(N)nccn12 [Example 40, (S)-4-(8-amino-3-(5-(but-2-ynoyl)-5-azaspiro[2.4]heptan-6-yl)imidazo[1,5-a]pyrazin-1-yl 1)-N-(4-(trifluoromethyl)pyridin-2-yl)benzamide] |  | 0.097 |  | 
